# Experimental data: patent US20120115724A1, “METHOD OF CONTROLLING UNDESIRED VEGETATION” (SYNGENTA CROP PROTECTION LLC, priority 2009, published 2012)
# Assays:
# Format in all cases: in vivo
# [1] = tested on: Alopecurus myosuroides (ALOMY); experiment: Pre-emergence biological efficacy (Example 13); settings: Alopecurus myosuroides, 312 h; pre-emergence, 1,000 g/ha, after 13 days; read-out: Percentage damage ALOMY
# Summary of the method: (§1)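 Pots of standard soil are sown, held one day under controlled glasshouse conditions, then sprayed at 250 or 1000 g/ha. Plants grow on at 24/16 °C with 14 h light and 65% humidity, watered twice daily, and damage is assessed after 13 days.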
# [2] = tested on: Amaranthus retroflexus (AMARE); experiment: Pre-emergence biological efficacy (Example 13); settings: Amaranthus retroflexus, 312 h; pre-emergence, 1,000 g/ha, after 13 days; read-out: Percentage damage AMARE
# Summary of the method: as §1
# [3] = tested on: Echinochloa crus-galli (ECHCG); experiment: Pre-emergence biological efficacy (Example 13); settings: Echinochloa crus-galli, 312 h; pre-emergence, 1,000 g/ha, after 13 days; read-out: Percentage damage ECHCG
# Summary of the method: as §1
# [4] = tested on: Ipomea hederaceae (IPOHE); experiment: Pre-emergence biological efficacy (Example 13); settings: Ipomoea hederacea, 312 h; pre-emergence, 1,000 g/ha, after 13 days; read-out: Percentage damage IPOHE
# Summary of the method: as §1
# Setaria faberi (SETFA) [5] = experiment: Pre-emergence biological efficacy (Example 13); settings: Setaria faberi, 312 h; pre-emergence, 1,000 g/ha, after 13 days; read-out: Percentage damage SETFA
# Summary of the method: as §1
# Solanum nigrum (SOLNI) [6] = experiment: Pre-emergence biological efficacy (Example 13); settings: Solanum nigrum, 312 h; pre-emergence, 1,000 g/ha, after 13 days; read-out: Percentage damage SOLNI
# Summary of the method: as §1
# [7] = tested on: Alopecurus myosuroides (ALOMY); experiment: Post-emergence biological efficacy (Example 14); settings: Alopecurus myosuroides, 312 h; post-emergence, 1,000 g/ha, after 13 days; read-out: Percentage damage ALOMY
# Summary of the method: (§2)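 Seeds are sown in pots of standard soil and grown for 8 days under glasshouse conditions (24/16 °C, 14 h light, 65% humidity). Seedlings are then sprayed at 250 or 1000 g/ha in aqueous acetone with 0.5% Tween 20, kept under the same conditions, and rated for damage (0–100) after 13 days.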
# [8] = tested on: Amaranthus retroflexus (AMARE); experiment: Post-emergence biological efficacy (Example 14); settings: Amaranthus retroflexus, 312 h; post-emergence, 1,000 g/ha, after 13 days; read-out: Percentage damage AMARE
# Summary of the method: as §2
# [9] = tested on: Echinochloa crus-galli (ECHCG); experiment: Post-emergence biological efficacy (Example 14); settings: Echinochloa crus-galli, 312 h; post-emergence, 1,000 g/ha, after 13 days; read-out: Percentage damage ECHCG
# Summary of the method: as §2
# [10] = tested on: Ipomea hederaceae (IPOHE); experiment: Post-emergence biological efficacy (Example 14); settings: Ipomoea hederacea, 312 h; post-emergence, 1,000 g/ha, after 13 days; read-out: Percentage damage IPOHE
# Summary of the method: as §2
# Setaria faberi (SETFA) [11] = experiment: Post-emergence biological efficacy (Example 14); settings: Setaria faberi, 312 h; post-emergence, 1,000 g/ha, after 13 days; read-out: Percentage damage SETFA
# Summary of the method: as §2
# Solanum nigrum (SOLNI) [12] = experiment: Post-emergence biological efficacy (Example 14); settings: Solanum nigrum, 312 h; post-emergence, 1,000 g/ha, after 13 days; read-out: Percentage damage SOLNI
# Summary of the method: as §2
# [13] = tested on: ABUTH Abutilon theophrasti; experiment: Post-emergence crop and weed test (Example 15); settings: 360 h, after 15 days, read-out: Percentage damage ABUTH
# Summary of the method: (§3)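 Glasshouse post-emergence trial; 0–100 damage rating taken 15 days after spraying 14-day-old plants, which were watered twice daily post-treatment.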
# [14] = tested on: AMARE Amaranthus retroflexus; experiment: Post-emergence crop and weed test (Example 15); settings: 360 h, after 15 days, read-out: Percentage damage AMARE
# Summary of the method: as §3
# [15] = tested on: EPHHL Euphorbia heterophylla; experiment: Post-emergence crop and weed test (Example 15); settings: 360 h, after 15 days, read-out: Percentage damage EPHHL
# Summary of the method: as §3
# IPOHE Ipomoea hederacea = experiment: Post-emergence crop and weed test (Example 15); settings: 360 h, after 15 days, read-out: Percentage damage IPOHE
# Summary of the method: as §3
# [16] = tested on: POLCO Polygonum convolvulus; experiment: Post-emergence crop and weed test (Example 15); settings: Fallopia convolvulus, 360 h, after 15 days, read-out: Percentage damage POLCO
# Summary of the method: as §3
# VERPE Veronica persica = experiment: Post-emergence crop and weed test (Example 15); settings: 360 h, after 15 days, read-out: Percentage damage VERPE
# Summary of the method: as §3
Structure (SMILES),pest or weed control at 1000 g/ha [1] [%],pest or weed control at 1000 g/ha [2] [%],pest or weed control at 1000 g/ha [3] [%],pest or weed control at 1000 g/ha [4] [%],pest or weed control at 1000 g/ha (Setaria faberi (SETFA) [5]) [%],pest or weed control at 1000 g/ha (Solanum nigrum (SOLNI) [6]) [%],pest or weed control at 1000 g/ha [7] [%],pest or weed control at 1000 g/ha [8] [%],pest or weed control at 1000 g/ha [9] [%],pest or weed control at 1000 g/ha [10] [%],pest or weed control at 1000 g/ha (Setaria faberi (SETFA) [11]) [%],pest or weed control at 1000 g/ha (Solanum nigrum (SOLNI) [12]) [%],also measured
"C/C=C/c1c(N)nc(-c2ccc(Cl)c(OC)c2F)nc1C(=O)OC [Compound 3, (E)-4-Amino-2-(4-chloro-2-fluoro-3-methoxy-phenyl)-6-methoxy-carbonyl-5-(prop-1-enyl)-pyrimidine]",90,50,90,90,80,80,90,100,100,90,100,100,pest or weed control at 125 g/ha ([13]; 125 g/ha): 80%; pest or weed control at 125 g/ha ([14]; 125 g/ha): 100%; pest or weed control at 125 g/ha ([15]; 125 g/ha): 90%; pest or weed control at 125 g/ha (IPOHE Ipomoea hederacea; 125 g/ha): 80%; pest or weed control at 125 g/ha ([16]; 125 g/ha): 90%; pest or weed control at 125 g/ha (VERPE Veronica persica; 125 g/ha): 80%
"C/C=C\c1c(N)nc(-c2ccc(Cl)c(OC)c2F)nc1C(=O)OC [Compound 4, (Z)-4-Amino-2-(4-chloro-2-fluoro-3-methoxy-phenyl)-6-methoxy-carbonyl-5-(prop-1-enyl)-pyrimidine]",80,100,90,100,80,100,70,100,80,100,90,80,pest or weed control at 8 g/ha ([13]; 8 g/ha): 60%; pest or weed control at 8 g/ha ([14]; 8 g/ha): 80%; pest or weed control at 8 g/ha ([15]; 8 g/ha): 90%; pest or weed control at 8 g/ha (IPOHE Ipomoea hederacea; 8 g/ha): 70%; pest or weed control at 8 g/ha ([16]; 8 g/ha): 70%; pest or weed control at 8 g/ha (VERPE Veronica persica; 8 g/ha): 80%
"C/C=C\c1c(N)nc(-c2ccc(Cl)c(N(C)C)c2F)nc1C(=O)OC [Compound 5, (Z)-4-Amino-2-(4-chloro-3-dimethylamino-2-fluorophenyl)-6-methoxy-carbonyl-5-(prop-1-enyl)-pyrimidine]",30,70,30,20,30,60,60,100,70,30,70,80,pest or weed control at 30 g/ha ([13]; 30 g/ha): 40%; pest or weed control at 30 g/ha ([14]; 30 g/ha): 90%; pest or weed control at 30 g/ha ([15]; 30 g/ha): 60%; pest or weed control at 30 g/ha (IPOHE Ipomoea hederacea; 30 g/ha): 0%; pest or weed control at 30 g/ha ([16]; 30 g/ha): 90%; pest or weed control at 30 g/ha (VERPE Veronica persica; 30 g/ha): 60%
